From ChEMBL document CHEMBL3297740, “Thiazolidine-2,4-diones derivatives as PPAR-γ agonists: synthesis, molecular docking, in vitro and in vivo antidiabetic activity with hepatotoxicity risk evaluation and effect on PPAR-γ gene expression” (Bioorg Med Chem Lett, 2014)
Activity calls are given as the source filed them. No cut-off for these calls is given here.

Assays:
[1] = tested on: Rattus norvegicus; test: Antidiabetic activity in streptozotocin-induced Albino Wistar rat diabetic model assessed as decrease in blood glucose level at 36 mg/kg, po measured after 15 days by glucose oxidase method; format: functional, organism-based; set-up: dose 36 mg/kg
[2] = species: Rattus norvegicus; test: Hepatotoxicity in streptozotocin-induced in Albino Wistar rat diabetic model assessed increase in sinusoidal dilatation by Haematoxylin/Eosin staining-based microscopy; format: toxicity, organism-based; conditions: in vivo
[3] = species: Rattus norvegicus; test: Hepatotoxicity in streptozotocin-induced in Albino Wistar rat diabetic model assessed increase in portal triad Inflammation by Haematoxylin/Eosin staining-based microscopy; format: toxicity, organism-based; conditions: in vivo
[4] = species: Rattus norvegicus; test: Hepatotoxicity in streptozotocin-induced in Albino Wistar rat diabetic model assessed as fatty changes in hepatocyte by Haematoxylin/Eosin staining-based microscopy; format: toxicity, organism-based; conditions: hepatocytes
[5] = species: Rattus norvegicus; test: Hepatotoxicity in streptozotocin-induced in Albino Wistar rat diabetic model assessed as hepatocyte swelling by Haematoxylin/Eosin staining-based microscopy; format: toxicity, organism-based; conditions: hepatocytes
[6] = species: Rattus norvegicus; test: Reduction in streptozotocin-induced aspartate aminotransferase level in Albino Wistar rat diabetic model; format: functional, organism-based
[7] = species: Rattus norvegicus; test: Reduction in streptozotocin-induced alanine transaminase level in Albino Wistar rat diabetic model; format: functional, organism-based
[8] = species: Rattus norvegicus; test: Reduction in streptozotocin-induced alkaline phosphatase level in Albino Wistar rat diabetic model; format: functional, organism-based
[9] = species: Rattus norvegicus; test: Toxicity in streptozotocin-induced in Albino Wistar rat diabetic model assessed as liver damage by Haematoxylin/Eosin staining-based microscopy; format: organism-based; conditions: in vivo
[10] = species: Rattus norvegicus; test: Antidiabetic activity in Albino Wistar rat assessed as reduction of blood glucose level measured at 120 mins after glucose injection by oral glucose tolerance test; format: functional, organism-based
[11] = species: Rattus norvegicus; test: Antidiabetic activity in Albino Wistar rat assessed as improvement in insulin resistance measured at 90 mins after insulin injection by insulin tolerance test; format: functional, organism-based
[12] = species: Rattus norvegicus; test: Toxicity in Albino Wistar rat assessed as change in body weight relative to control; format: organism-based; conditions: in vivo
[13] = tested on: Rattus norvegicus; test: Antidiabetic activity in streptozotocin-induced Albino Wistar rat diabetic model assessed as improvement in body weight at 36 mg/kg, po measured after 15 days by glucose oxidase method; format: functional, organism-based; set-up: dose 36 mg/kg

| Compound | inhibition [1] | Activity [2] | Activity [3] | Activity [4] | Activity [5] | Activity [6] | Activity [7] | Activity [8] | Activity [9] | further results |
| --- | --- | --- | --- | --- | --- | --- | --- | --- | --- | --- |
| O=C1NC(=O)C(CC2COc3c(Cl)cc(Cl)cc3C2=O)S1 (stereo unspecified) | Active |  |  |  |  |  |  |  |  |  |
| CCc1ccc(CCOc2ccc(CC3SC(=O)NC3=O)cc2)nc1 (stereo unspecified) [PIOGLITAZONE] |  | Toxic | Non-toxic | Non-toxic | Non-toxic |  |  |  |  |  |
| O=C1NC(=O)C(Cc2coc3ccccc3c2=O)S1 (stereo unspecified) | Active |  |  |  |  |  |  |  |  |  |
| COc1cccc2c1C(=O)C(CC1SC(=O)NC1=O)CO2 (stereo unspecified) | Active |  |  |  |  |  |  |  |  |  |
| O=C1NC(=O)C(Cc2coc3c(Cl)cc(Cl)cc3c2=O)S1 (stereo unspecified) | Active | Toxic | Non-toxic | Non-toxic | Non-toxic | Active | Active | Active | Toxic |  |
| COc1ccc2occ(CC3SC(=O)NC3=O)c(=O)c2c1 (stereo unspecified) | Active | Non-toxic | Non-toxic | Non-toxic | Non-toxic | Active | Active | Active | Non-toxic |  |
| O=C1NC(=O)C(CC2COc3ccc(F)cc3C2=O)S1 (stereo unspecified) | Active |  |  |  |  |  |  |  |  |  |
| O=C1NC(=O)C(CC2COc3ccc(Br)cc3C2=O)S1 (stereo unspecified) | Active |  |  |  |  |  |  |  |  |  |
| O=C1NC(=O)C(Cc2coc3ccc(Br)cc3c2=O)S1 (stereo unspecified) | Active | Toxic | Non-toxic | Non-toxic | Non-toxic | Active | Active | Active | Toxic |  |
| O=C1NC(=O)C(Cc2coc3ccc(F)cc3c2=O)S1 (stereo unspecified) | Active | Toxic | Non-toxic | Non-toxic | Non-toxic | Active | Active | Active | Toxic |  |
| O=C1NC(=O)C(Cc2coc3ccc(Cl)cc3c2=O)S1 (stereo unspecified) | Active | Non-toxic | Non-toxic | Non-toxic | Non-toxic | Active | Active | Active | Non-toxic | inhibition [10]: Active; Activity [11]: Active; Activity [12]: Non-toxic; Activity [13]: Active |
| Cc1ccc2c(c1)C(=O)C(CC1SC(=O)NC1=O)CO2 (stereo unspecified) | Active |  |  |  |  |  |  |  |  |  |
| COc1ccc2c(c1)C(=O)C(CC1SC(=O)NC1=O)CO2 (stereo unspecified) | Active |  |  |  |  |  |  |  |  |  |
| Cc1ccc2occ(CC3SC(=O)NC3=O)c(=O)c2c1 (stereo unspecified) | Active |  |  |  |  |  |  |  |  |  |
